Earlier results, collected in paper PMC6361557 (Cancer Science, 2019).

Test system: PSMA
Settings: LNCaP cells

| Compound | IC50 [nM] |
| --- | --- |
| ^68Ga‐PSMA‐11 | 24.3 |
